Experimental findings from patent US20260356841A1, “HETEROCYCLIC PYRIDINONE COMPOUNDS AS TRIGGERING RECEPTOR EXPRESSED ON MYELOID CELLS 2 AGONISTS AND METHODS OF USE” (Vigil Neuroscience, Inc., priority 2023, published 2026) are described below.

For this experiment, the target named is T1, human TREM2 (Homo sapiens, UniProt Q9NZC2).
T1 construct: expressed in transfected cells; host or cells: HEK293T (HEK293T-hTREM2 cells)
Briefly: TREM2 agonist potency by cellular phosphorylation of Spleen Tyrosine Kinase (Syk), AlphaLisa, HEK293T-hTREM2 cells. Format: cell-based. The settings on record: hTREM2 EC50 Data (HEK293 Cells); Syk phosphorylation, AlphaLisa; read-out: hTREM2 EC50. On the procedure:
Measurement of TREM2 agonist potency was done using a HEK cell line expressing human TREM2 and DAP12 (HEK293T-hTREM2 cells). Binding of small molecules to, and activation of, TREM2 increases the phosphorylation of Syk. The resultant levels of Syk phosphorylation are measured using a commercial AlphaLisa reagent kit. To perform the assay, HEK-hTREM2 cells were plated at 14,000 cells per well in a 384 well plate, in 25 μL of complete growth media and incubated at 37° C., 5% CO2 for 20-24 hours.
Prior to the assay, test compounds were diluted in the 384 well plates in assay buffer and allowed to equilibrate for 30 minutes. Growth media was removed from cell plates by inversion on blotting paper, and 25 μL of test articles in assay buffer was added to cells. Cells were incubated for 45 minutes at room temperature. After 45 minutes, assay buffer was removed and 10 μL of lysis buffer was added. Plates were shaken for 20 minutes at 350 RPM at room temperature. After complete lysis, AlphaLisa reagents were added to the lysate, and fluorescence intensity was measured using a Perkin Elmer Envision plate reader. Intensities were used to generate a standard curve, and % activation was calculated. Curve fitting was performed using Prism v9 software, log (agonist) vs response-variable slope (four parameters), and EC50s were calculated from the curve fit.
The results presented in Table B have been generated with the in vitro assay described above. This assay may be used to test any of the compounds described herein to assess and characterize a compound's ability to act as an agonist of TREM2.

The EC50 is the concentration at which the effect is half-maximal.

T1 sequence (Q9NZC2 19-230): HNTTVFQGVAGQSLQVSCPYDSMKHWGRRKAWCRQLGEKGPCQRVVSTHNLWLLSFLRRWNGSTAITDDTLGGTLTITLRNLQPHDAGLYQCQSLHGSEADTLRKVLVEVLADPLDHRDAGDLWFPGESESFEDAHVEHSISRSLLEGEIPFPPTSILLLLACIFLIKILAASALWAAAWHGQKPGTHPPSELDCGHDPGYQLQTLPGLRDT
T1 sequence (O43914 22-113 partner): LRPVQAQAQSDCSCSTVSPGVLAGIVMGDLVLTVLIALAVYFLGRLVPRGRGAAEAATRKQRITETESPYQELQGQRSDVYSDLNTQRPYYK

In the case of `CNn1cc([C@H]2CN(c3nc(-c4ccc(F)cc4F)c4sc(N(C)C)nc4n3)C[C@@H](C)O2)ccc1=O` [Example 175, 5-[(2S,6R)-4-[7-(2,4-difluorophenyl)-2-(dimethylamino)thiazolo[4,5-d]pyrimidin-5-yl]-6-methyl-morpholin-2-yl]-1-(methylamino)pyridin-2-one], the concentration for a half-maximal effect (EC50) is under 100 nM. The result for `C=CC(=O)Nn1cc([C@H]2C[C@@H](c3nc(C45CC(C(F)(F)F)(C4)C5)c4nc(C)c(C)nc4n3)CCO2)ccc1=O` [Example 213, N-[5-[(2R,4S)-4-[6,7-dimethyl-4-[3-(trifluoromethyl)-1-bicyclo[1.1.1]pentanyl]pteridin-2-yl]tetrahydropyran-2-yl]-2-oxo-1-pyridyl]prop-2-enamide] reads under 100 nM. Next, `Cc1nc2c(C34CC(C(F)(F)F)(C3)C4)nc([C@@H]3CCO[C@H](c4ccc(=O)n(C)c4)C3)nc2nc1C1CC1` [Example 156, 1-methyl-5-[(2S,4R)-4-[7-cyclopropyl-6-methyl-4-[3-(trifluoro-methyl)-1-bicyclo[1.1.1]pentanyl]pteridin-2-yl]tetrahydropyran-2-yl]pyridin-2-one]: under 100 nM; `Cc1nc2nc([C@H]3CCO[C@@H](c4ccc(=O)n(C)c4)C3)nc(C3CCC(F)(F)CC3)c2nc1C` [Example 28, 5-((2R,4S)-4-(4-(4,4-difluorocyclohexyl)-6,7-dimethylpteridin-2-yl)tetrahydro-2H-pyran-2-yl)-1-methylpyridin-2 (1H)-one]: under 100 nM; `Cc1nc2nc([C@H]3CCO[C@@H](c4ccc(=O)n(N(C)C)c4)C3)nc(C34CC(C(F)(F)F)(C3)C4)c2cc1C(F)(F)F` [Example 336, 1-(dimethylamino)-5-((2R,4S)-4-(7-methyl-6-(trifluoromethyl)-4-(3-(trifluoromethyl)bicyclo-[1.1.1]pentan-1-yl)pyrido[2,3-d]pyrimidin-2-yl)tetrahydro-2H-pyran-2-yl)pyridin-2 (1H)-one]: under 100 nM. The result for `COc1nc2c(C3CCC(F)(F)CC3)nc([C@H]3CCO[C@@H](c4ccc(=O)n(C)c4)C3)nc2nc1C` [Example 138, 5-[(2R,4S)-4-[4-(4,4-difluorocyclohexyl)-6-methoxy-7-methyl-pteridin-2-yl]tetrahydropyran-2-yl]-1-methyl-pyridin-2-one] reads under 100 nM; that for `Cc1nc2nc([C@H]3CCO[C@H](c4ccc(=O)n(C)c4)C3)cc(C34CC(C(F)(F)F)(C3)C4)c2nc1C` [Example 170, 1-methyl-5-[(2S,4S)-4-[2,3-dimethyl-8-[3-(trifluoromethyl)-1-bicyclo[1.1.1]pentanyl]pyrido[2,3-b]pyrazin-6-yl]tetrahydropyran-2-yl]pyridin-2-one], 100 to 500 nM.

Consider `CN(C)c1nc2nc([C@H]3CCO[C@H](c4ccc(=O)n(C)c4)C3)nc(-c3ccc(F)cc3F)c2s1` (stereo in doubt) [Example 11, 5-[(2S,4S)-4-[7-(2,4-difluorophenyl)-2-(dimethylamino)thiazolo[4,5-d]pyrimidin-5-yl]tetrahydropyran-2-yl]-1-methyl-pyridin-2-one], for which the EC50 fell in the range of 100 to 500 nM. With `Cc1nc2nc([C@@H]3CCO[C@H](c4ccc(=O)n(C5CC5)c4)C3)nc(-c3ccc(C(F)(F)F)cc3F)c2nc1C` [Example 65, 1-cyclopropyl-5-[(2S,4R)-4-[4-[2-fluoro-4-(trifluoromethyl)phenyl]-6,7-dimethyl-pteridin-2-yl]tetrahydropyran-2-yl]pyridin-2-one], the EC50 was under 100 nM.

As for `Cc1nc2nc([C@@H]3CCO[C@H](c4ccc(=O)n(CC(F)F)c4)C3)nc(C34CC(C(F)(F)F)(C3)C4)c2nc1C` [Example 72, 1-(2,2-difluoroethyl)-5-[(2S,4R)-4-[6,7-dimethyl-4-[3-(trifluoro-methyl)-1-bicyclo-[1.1.1]pentanyl]-pteridin-2-yl]tetrahydropyran-2-yl]pyridin-2-one], the concentration for a half-maximal effect (EC50) is under 100 nM. The result for `Cc1nc2nc([C@H]3CCO[C@@H](c4ccc(=O)n(C)c4)C3)nc(C3CCC(CF)CC3)c2nc1C` (stereo partly drawn) [Example 50, 5-[(2R,4S)-4-[4-[4-(fluoromethyl)-cyclohexyl]-6,7-dimethyl-pteridin-2-yl]tetrahydropyran-2-yl]-1-methyl-pyridin-2-one] reads under 100 nM.

For `Cc1nc2nc(N3C[C@@H](C)O[C@@H](c4ccc(=O)n(N)c4)C3)nc(C34CC(C(F)(F)F)(C3)C4)c2nc1C1COC1` [Example 185, 1-amino-5-[(2S,6R)-6-methyl-4-[7-methyl-6-(oxetan-3-yl)-4-[3-(trifluoromethyl)-1-bicyclo[1.1.1]pentanyl]pteridin-2-yl]morpholin-2-yl]pyridin-2-one], the half-maximal effective concentration (EC50) was 100 to 500 nM. Consider `Cc1cnc2c(C34CC(C(F)(F)F)(C3)C4)nc([C@@H]3CCO[C@H](c4ccc(=O)n(C)c4)C3)nc2n1` [Example 124, 1-methyl-5-((2S,4R)-4-(7-methyl-4-(3-(trifluoromethyl)bicyclo[1.1.1]pentan-1-yl)pteridin-2-yl)tetrahydro-2H-pyran-2-yl)pyridin-2(1H)-one], for which the concentration giving a half-maximal response (EC50) lay within 100 to 500 nM. Next, `Cc1nc2nc([C@H]3CCO[C@@H](c4ccc(=O)n(N5CCCC5)c4)C3)nc(C34CC(C(F)(F)F)(C3)C4)c2nc1C` [Example 209, 5-[(2R,4S)-4-[6,7-dimethyl-4-[3-(trifluoromethyl)-1-bicyclo[1.1.1]pentanyl]pteridin-2-yl]tetrahydropyran-2-yl]-1-pyrrolidin-1-yl-pyridin-2-one]: under 100 nM. Turning to `Cc1nc2nc([C@H]3CCO[C@@H](c4ccc(=O)[nH]c4)C3)nc(C34CC(C(F)(F)F)(C3)C4)c2nc1C` [Example 34, 5-[(2R,4S)-4-[6,7-dimethyl-4-[3-(trifluoromethyl)-1-bicyclo[1.1.1]pentanyl]pteridin-2-yl]tetrahydropyran-2-yl]-1H-pyridin-2-one], the EC50 was under 100 nM. The result for `COn1cc([C@H]2C[C@@H](c3nc(C45CC(C(F)(F)F)(C4)C5)c4nc(C)c(C)nc4n3)CCO2)ccc1=O` [Example 203, 5-[(2R,4S)-4-[6,7-dimethyl-4-[3-(trifluoromethyl)-1-bicyclo[1.1.1]pentanyl]pteridin-2-yl]tetrahydropyran-2-yl]-1-methoxy-pyridin-2-one] reads under 100 nM.

`Cc1nc2nc([C@H]3CCO[C@@H](c4ccc(=O)n(C5CC5)c4)C3)nc(-c3ccc(C(F)(F)F)cc3F)c2nc1C` [Example 64, 1-cyclopropyl-5-[(2R,4S)-4-[4-[2-fluoro-4-(trifluoromethyl)phenyl]-6,7-dimethyl-pteridin-2-yl]tetrahydropyran-2-yl]pyridin-2-one]: the EC50 was under 100 nM.

Take `Cc1nc2nc([C@H]3CCO[C@@H](c4ccc(=O)n(C)c4)C3)nc(C34CC(CCF)(C3)C4)c2nc1C` [Example 48, 5-((2R,4S)-4-(4-(3-(2-fluoroethyl)bicyclo[1.1.1]pentan-1-yl)-6,7-dimethylpteridin-2-yl)tetrahydro-2H-pyran-2-yl)-1-methylpyridin-2(1H)-one]: the EC50 was under 100 nM. The result for `COc1nc2c(-c3ccc(C(F)(F)F)cc3F)nc([C@@H]3CCO[C@H](c4ccc(=O)n(C)c4)C3)nc2nc1C` [Example 130, 1-methyl-5-[(2S,4R)-4-[4-[2-fluoro-4-(trifluoromethyl)phenyl]-6-methoxy-7-methyl-pteridin-2-yl]tetrahydropyran-2-yl]pyridin-2-one] reads under 100 nM; that for `Cc1nc2nc([C@H]3CCO[C@@H](c4ccc(=O)n(C)c4)C3)nc(C34CC(C(C)(F)F)(C3)C4)c2nc1C` [Example 38, 5-[(2R,4S)-4-[4-[3-(1,1-difluoroethyl)-1-bicyclo[1.1.1]pentanyl]-6,7-dimethyl-pteridin-2-yl]tetrahydropyran-2-yl]-1-methyl-pyridin-2-one], under 100 nM; that for `Cc1nc2nc([C@H]3CCO[C@@H](c4ccc(=O)n(C)c4)C3)nc(-c3cc(F)c(C(F)(F)F)cc3F)c2nc1C` [Example 350], under 100 nM. As for `Cc1nc2nc([C@H]3CCO[C@@H](c4ccc(=O)n(C5CCC5)c4)C3)nc(C34CC(C(F)(F)F)(C3)C4)c2nc1C` [Example 94, 1-cyclobutyl-5-[(2R,4S)-4-[6,7-dimethyl-4-[3-(trifluoromethyl)-1 bicyclo[1.1.1]pentanyl]pteridin-2-yl]tetrahydropyran-2-yl]pyridin-2-one], the EC50 is under 100 nM. Next, `Cc1nc2nc(N3C[C@@H](C)O[C@@H](c4ccc(=O)n(C)c4)C3)nc(C34CC(C#N)(C3)C4)c2nc1C` [Example 205, 3-[6,7-dimethyl-2-[(2R,6S)-2-methyl-6-(1-methyl-6-oxo-3-pyridyl)morpholin-4-yl]pteridin-4-yl]bicyclo[1.1.1]pentane-1-carbonitrile]: under 100 nM; `Cc1nc2nc([C@H]3CCO[C@@H](c4ccc(=O)n(CC(F)F)c4)C3)nc(C34CC(C(F)(F)F)(C3)C4)c2nc1C` [Example 71, 1-(2,2-difluoroethyl)-5-[(2R,4S)-4-[6,7-dimethyl-4-[3-(trifluoromethyl)-1-bicyclo[1.1.1]pentanyl]pteridin-2-yl]tetrahydropyran-2-yl]pyridin-2-one]: under 100 nM.
